Source: US20140262319A1, “ENVIRONMENTALLY FRIENDLY PERMANENT QUATERNARIES OF POLYAMINES AND THEIR USE AS CLAY STABILIZERS AND METHODS FOR MAKING AND USING SAME” (CLEARWATER INTERNATIONAL, LLC, priority 2013, published 2014)

Tested on: Fathead Minnow (pimephales promelas)
Assay: Acute toxicity survival test
Assay type: in vivo
Conditions: Flathead Minnows
Procedure: As a consequence, the “definitive” test gave a more precise LC50 value. LC50 was determined using a log-normal transformation coupled with linear regression between the bracketing no observed effect concentration (NOEC) and lowest observed effect concentration (LOEC). Both the range finding and definitive tests were run on Example 4 and Example 5. Only the ranging finding test was run for TMAC and Example 3.

| SMILES | toxicity to minnows compared with TMAC |
| --- | --- |
| OCC[N+](CCO)(CCO)Cc1ccccc1.[Cl-] [Example 4] | much less toxic than TMAC |
| CCOS(=O)(=O)[O-].CC[N+](CCO)(CCO)CCO [Example 5] | much less toxic than TMAC |
